Holding throughout (assay type): binding
One assay concerns the target T1, SSTR4 (Homo sapiens, UniProt P31391).
T1 construct: purchased Promega (in-house HiBiT-GPCR construct library, NanoBRET)
The assay is described as follows: NanoBRET screen HiBiT-SSTR4 in HEK293. The procedure: (§1) Each tracer candidate was screened across the entire library of HiBiT-GPCR constructs using NanoBRET as the detection modality. As depicted in Figure 4A, the specificity of interactions was evaluated through decrease in BRET due to competitive displacement of a bound tracer by excess parental compound. Each tracer was analyzed for binding to each HiBiT-GPCR fusion in the absence and in the presence of competing parental compound. Briefly, HEK293 cells were transfected with HiBiT-GPCR constructs diluted into promoterless DNA to reduce expression and maximize translocation to the cell surface. Each tracer candidate was then screened at concentrations of 1 μM and 0.1 μM across cells expressing these fusions. Cells were treated for 1.5 h with tracer either alone or in the presence of 20 μM competing parental compound (i.e., control). BRET was measured upon addition of purified LgBiT and subsequent complementation with HiBiT genetically fused to a GPCR. The specificity of interactions was assessed through a decrease in BRET signal due to competitive displacement of the bound tracer. To further gauge the robustness of these interactions, the fold response over the control (i.e., BRETtracer/BRETcontrol) was calculated. We chose a 1.5-fold response, which translates to ≥7-fold signal over noise as the minimal threshold required to score an interaction as positive. […]. Below we highlight the screening results obtained for our exemplary fluorescent tracers based on Clozapine, Amitriptyline and AZD1283.
(§2) HiBiT-GPCR DNA constructs were diluted in 10 mM Tris pH 8 to a final concentration of 0.01 μg/μL, arrayed in 96-well plates and stored at −20 °C. For transfection, HEK293 cells were suspended in Opti-MEM (without phenol red) supplemented with 2% fetal bovine serum (Seradigm) and 100 units/mL penicillin–streptomycin (Gibco) at a final concentration of 220,000 cells/mL and dispensed into white 96-well plates at 90 μL/well. Subsequent transfections and screens were carried using an Agilent Bravo Automated Liquid Handling Platform. First, the 96-well HiBiT DNA arrays were diluted 25-fold in Opti-MEM (without serum or phenol red) to a final concentration of 0.0004 μg/μL and 20 μL of the diluted DNAs were transferred into new 96-well plates. Next, promoterless carrier DNA (1 μg/μL) was diluted 25-fold (0.04 μg/μL) and then dispensed into the diluted arrays at 20 μL/well. Following brief mixing, Viafect transfection reagent (Promega) diluted 16-fold into Opti-MEM was dispensed into the plates at 40 μL/well. After mixing by pipetting, plates were incubated for 10 min on the pipetting station deck. The DNA-transfection reagent complexes were then added to plates containing cells. To facilitate the screen, 10 μL of DNA-transfection reagent complexes were added in duplicates to the top 4 and bottom 4 rows, resulting in two identical 48-well arrays per plate. Plates with transfected cells were incubated for 18–20 h at 37 °C/5% CO2. A screen of each tracer across the entire library using two different concentrations requires duplicate plates of transfected cells. Depending on the number of tracers being screened, transfections can be scaled up using the same ratios. The next day, for each tracer, four 20× screening solutions in tracer dilution buffer (Promega) were prepared: two duplicates at final concentration of 20 μM and two duplicates at a final concentration of 2 μM. A competing unmodified compound was added to one of each duplicate at a final concentration of 400 μM. The four resulting solutions were diluted 4-fold in Opti-MEM without serum or phenol red to generate 5× solutions (5 µM and 0.5 µM tracer +/− 100 μM competing compound). To screen the library, a BioTek MultiFlo FX liquid dispenser was used to dispense 22.5 µL of tracer solution to the top 4 rows and 22.5 µL tracer + competing compound solution to the 4 bottom rows. Plates were briefly mixed on an orbital shaker and incubated for 1.5 h at room temperature. […]

Another assay concerns the target T2, SSTR2 (Homo sapiens, UniProt P30874).
T2 construct: purchased Promega (in-house HiBiT-GPCR construct library, NanoBRET)
Description: NanoBRET screen HiBiT-SSTR2 in HEK293. The procedure:
as §1, §2

The target in another assay is T3, GABBR2 (Homo sapiens, UniProt O75899).
T3 construct: purchased Promega (in-house HiBiT-GPCR construct library, NanoBRET)
T3 sequence (O75899 42-941): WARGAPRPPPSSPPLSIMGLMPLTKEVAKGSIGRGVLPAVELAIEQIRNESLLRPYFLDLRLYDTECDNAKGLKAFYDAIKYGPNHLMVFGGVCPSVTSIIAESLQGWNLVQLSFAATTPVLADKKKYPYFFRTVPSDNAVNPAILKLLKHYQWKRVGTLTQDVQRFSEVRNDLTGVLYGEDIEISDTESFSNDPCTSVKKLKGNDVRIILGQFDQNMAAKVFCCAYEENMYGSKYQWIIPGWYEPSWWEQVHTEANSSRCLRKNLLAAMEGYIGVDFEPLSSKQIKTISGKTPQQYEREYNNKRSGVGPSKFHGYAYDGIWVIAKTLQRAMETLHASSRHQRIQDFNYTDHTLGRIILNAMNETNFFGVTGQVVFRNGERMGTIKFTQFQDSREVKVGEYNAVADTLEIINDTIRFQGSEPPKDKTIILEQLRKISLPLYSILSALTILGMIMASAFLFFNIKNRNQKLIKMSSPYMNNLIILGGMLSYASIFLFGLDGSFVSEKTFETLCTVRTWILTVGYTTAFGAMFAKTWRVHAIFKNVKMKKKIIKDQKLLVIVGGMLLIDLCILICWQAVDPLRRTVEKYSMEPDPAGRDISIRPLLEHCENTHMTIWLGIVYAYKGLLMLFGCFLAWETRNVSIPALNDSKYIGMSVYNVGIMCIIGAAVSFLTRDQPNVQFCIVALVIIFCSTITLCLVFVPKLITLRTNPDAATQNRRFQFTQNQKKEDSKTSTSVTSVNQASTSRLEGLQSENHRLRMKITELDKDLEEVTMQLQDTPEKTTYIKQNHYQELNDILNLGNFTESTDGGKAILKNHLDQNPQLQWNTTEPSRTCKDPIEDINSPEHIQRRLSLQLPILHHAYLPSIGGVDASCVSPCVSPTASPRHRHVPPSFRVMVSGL
The assay is described as follows: NanoBRET screen HiBiT-GABBR2 in HEK293. On the procedure: as §1, §2

In another assay the target is T4, SMO (Homo sapiens, UniProt Q99835).
T4 construct: purchased Promega (in-house HiBiT-GPCR construct library, NanoBRET)
T4 sequence (Q99835 28-787): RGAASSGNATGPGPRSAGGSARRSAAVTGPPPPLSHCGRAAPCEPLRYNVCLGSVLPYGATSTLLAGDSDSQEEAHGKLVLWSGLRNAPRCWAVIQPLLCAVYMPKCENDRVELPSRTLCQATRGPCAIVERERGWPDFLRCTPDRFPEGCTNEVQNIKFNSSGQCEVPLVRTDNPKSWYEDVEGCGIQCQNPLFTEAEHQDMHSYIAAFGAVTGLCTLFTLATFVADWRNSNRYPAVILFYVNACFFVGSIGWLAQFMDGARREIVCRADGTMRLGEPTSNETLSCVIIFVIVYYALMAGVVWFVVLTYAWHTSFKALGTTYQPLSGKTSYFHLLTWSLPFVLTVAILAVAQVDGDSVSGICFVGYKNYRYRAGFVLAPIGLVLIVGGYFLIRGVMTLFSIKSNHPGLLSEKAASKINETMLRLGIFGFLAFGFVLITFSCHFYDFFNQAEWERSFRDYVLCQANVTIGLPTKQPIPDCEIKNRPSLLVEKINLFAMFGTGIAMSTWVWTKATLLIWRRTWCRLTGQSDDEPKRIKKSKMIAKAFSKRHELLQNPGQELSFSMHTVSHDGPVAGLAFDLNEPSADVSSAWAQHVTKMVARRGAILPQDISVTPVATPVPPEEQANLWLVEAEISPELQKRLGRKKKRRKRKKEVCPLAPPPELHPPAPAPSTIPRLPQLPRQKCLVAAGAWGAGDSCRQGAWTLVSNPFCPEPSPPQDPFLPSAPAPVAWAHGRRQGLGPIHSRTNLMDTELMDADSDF
The assay is described as follows: NanoBRET screen HiBiT-SMO in HEK293. The procedure:
as §1, §2

The structures appear in SMILES notation.

T1 sequence (P31391 whole entry): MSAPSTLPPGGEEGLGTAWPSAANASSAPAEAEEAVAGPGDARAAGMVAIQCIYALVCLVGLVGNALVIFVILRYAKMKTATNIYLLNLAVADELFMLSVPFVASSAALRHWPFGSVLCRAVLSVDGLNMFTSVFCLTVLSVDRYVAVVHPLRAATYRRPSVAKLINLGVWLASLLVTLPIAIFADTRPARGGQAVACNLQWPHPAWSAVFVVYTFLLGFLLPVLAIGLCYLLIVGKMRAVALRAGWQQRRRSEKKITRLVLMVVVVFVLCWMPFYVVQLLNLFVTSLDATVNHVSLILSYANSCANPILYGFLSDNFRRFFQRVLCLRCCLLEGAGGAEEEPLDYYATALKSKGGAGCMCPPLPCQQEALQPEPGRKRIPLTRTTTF
T2 sequence (P30874 whole entry): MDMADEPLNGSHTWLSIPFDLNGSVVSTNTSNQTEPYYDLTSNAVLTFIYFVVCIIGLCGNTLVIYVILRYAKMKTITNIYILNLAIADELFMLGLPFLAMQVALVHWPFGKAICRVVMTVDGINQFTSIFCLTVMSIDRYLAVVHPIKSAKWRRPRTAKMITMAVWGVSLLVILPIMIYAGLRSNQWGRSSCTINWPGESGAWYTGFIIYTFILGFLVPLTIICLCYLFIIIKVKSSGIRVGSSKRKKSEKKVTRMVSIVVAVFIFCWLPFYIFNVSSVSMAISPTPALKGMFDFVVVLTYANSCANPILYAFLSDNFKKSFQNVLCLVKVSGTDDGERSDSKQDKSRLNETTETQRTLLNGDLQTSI

As for `O=C(CCOCCOCCOCCOCCNC(=O)CCc1ccc2n1[B-](F)(F)[N+]1=C(c3ccc[nH]3)C=CC1=C2)NCCCN1CCN(C2=Nc3ccccc3Oc3ccc(Cl)cc32)CC1` [Loxapine-a-2-NB590], the “NanoBRET Fold Response” value at SSTR4 (SSTR4, tracer 0.1μM) came to 1.00; at SSTR4 (SSTR4, tracer 1μM) it was 1.09; at SSTR2 (SSTR2, tracer 0.1μM), 1.03; at SSTR2 (SSTR2, tracer 1μM), 1.31; at GABBR2 (GABBR2, tracer 0.1μM), 1.03; on GABBR2 (GABBR2, tracer 1μM) it was 0.85. The “NanoBRET Fold Response” value was determined as 0.98 on SMO (SMO, tracer 0.1μM) and 1.15 at SMO (SMO, tracer 1μM).

As to `CCCn1c(=O)c2[nH]c(-c3ccc(OCC(=O)NCCNC(=O)CCOCCNC(=O)c4ccc(CNC(=O)CCc5ccc6n5[B-](F)(F)[N+]5=C(c7ccc[nH]7)C=CC5=C6)cc4)cc3)nc2n(CCC)c1=O` [XAC-3-NB590], the “NanoBRET Fold Response” value at SSTR4 (SSTR4, tracer 0.1μM) was 1.01; on SSTR4 (SSTR4, tracer 1μM), 0.93; at SSTR2 (SSTR2, tracer 0.1μM), 0.97; at SSTR2 (SSTR2, tracer 1μM) it was 1.06; at GABBR2 (GABBR2, tracer 0.1μM), 1.02; on GABBR2 (GABBR2, tracer 1μM), 1.11. Besides, the “NanoBRET Fold Response” value was 1.01 on SMO (SMO, tracer 0.1μM) and 1.05 at SMO (SMO, tracer 1μM).

For `CN(C)CCC=C1c2ccccc2CCc2ccc(C(=O)NCCNC(=O)CCOCCOCCOCCOCCNC(=O)CCc3ccc4n3[B-](F)(F)[N+]3=C(c5ccc[nH]5)C=CC3=C4)cc21` [Amitriptyline-a-2-NB590], the “NanoBRET Fold Response” value on SSTR4 (tracer at 0.1μM) was 1.09; on SSTR4 (tracer at 1μM), 1.09; at SSTR2 (tracer at 0.1μM), 1.03; at SSTR2 (tracer at 1μM) it was 1.03; at GABBR2 (tracer at 0.1μM) it was 1.08; on GABBR2 (tracer at 1μM), 0.95.

Take `COc1ccccc1N1CCN(CCCCN2C(=O)c3ccc(CNC(=O)CCOCCOCCOCCOCCNC(=O)CCc4ccc5n4[B-](F)(F)[N+]4=C(c6ccc[nH]6)C=CC4=C5)cc3C2=O)CC1` [NAN-190-2-NB590]: the “NanoBRET Fold Response” value on SSTR4 (SSTR4, tracer 0.1μM) is on record as 1.02; at SSTR4 (SSTR4, tracer 1μM), 1.00; at SSTR2 (SSTR2, tracer 0.1μM) it was 0.99; at SSTR2 (SSTR2, tracer 1μM), 1.03; at GABBR2 (GABBR2, tracer 0.1μM), 0.95; on GABBR2 (GABBR2, tracer 1μM) it was 1.04. Moreover, the “NanoBRET Fold Response” value at SMO (SMO, tracer 0.1μM) is 1.11; on SMO (SMO, tracer 1μM), 1.11.

Regarding `O=C(CCc1ccc2n1[B-](F)(F)[N+]1=C(c3ccc[nH]3)C=CC1=C2)NCc1ccc(C(=O)NCCOCCOCCNCC(O)COc2cccc3ccccc23)cc1` (centres unmarked) [Propranolol-3-NB590], the “NanoBRET Fold Response” value was determined as 1.02 at SSTR4 (SSTR4, 0.1μM); 0.98 at SSTR4 (SSTR4, 1μM); 1.04 on SSTR2 (SSTR2, 0.1μM); 1.01 on SSTR2 (SSTR2, 1μM); 0.96 on GABBR2 (GABBR2, 0.1μM); 1.13 on GABBR2 (GABBR2, 1μM). For the same compound, the “NanoBRET Fold Response” value came out at 1.16 on SMO (SMO, 0.1μM) and 1.07 at SMO (SMO, 1μM).

With `COc1ccccc1N1CCN(CCCCN2C(=O)c3ccc(CNC(=O)CCOCCNC(=O)c4ccc(CNC(=O)CCc5ccc6n5[B-](F)(F)[N+]5=C(c7ccc[nH]7)C=CC5=C6)cc4)cc3C2=O)CC1` [NAN-190-3-NB590], the “NanoBRET Fold Response” value is listed as 0.90 at SSTR4 (SSTR4, tracer 0.1μM); 1.05 on SSTR4 (SSTR4, tracer 1μM); 1.00 on SSTR2 (SSTR2, tracer 0.1μM); 1.10 on SSTR2 (SSTR2, tracer 1μM); 1.03 on GABBR2 (GABBR2, tracer 0.1μM); 1.10 on GABBR2 (GABBR2, tracer 1μM). Also, the “NanoBRET Fold Response” value on SMO (SMO, tracer 0.1μM) was 0.88; on SMO (SMO, tracer 1μM), 0.97.

In the case of `O=C(CCc1ccc2n1[B-](F)(F)[N+]1=C(c3ccc[nH]3)C=CC1=C2)NCc1ccc(C(=O)NCCOCCC(=O)N[C@@H]2CC[C@@]3(O)[C@H]4Cc5ccc(O)c6c5[C@@]3(CCN4CC3CC3)[C@H]2O6)cc1` [Naltrexone-3-NB590], the “NanoBRET Fold Response” value at SSTR4 (SSTR4, tracer 0.1μM) is on record as 0.99; on SSTR4 (SSTR4, tracer 1μM), 0.90; on SSTR2 (SSTR2, tracer 0.1μM), 1.06; at SSTR2 (SSTR2, tracer 1μM), 0.93; at GABBR2 (GABBR2, tracer 0.1μM) it was 0.80; at GABBR2 (GABBR2, tracer 1μM), 1.11. For the same compound, the “NanoBRET Fold Response” value on SMO (SMO, tracer 0.1μM) is 0.58; on SMO (SMO, tracer 1μM), 0.55.

Regarding `CCOC(=O)c1cc(C#N)c(N2CCC(C(=O)NS(=O)(=O)Cc3ccccc3/C=C/C(=O)NCCNC(=O)CCc3ccc4n3[B-](F)(F)[N+]3=C(c5ccc[nH]5)C=CC3=C4)CC2)nc1C` [AZD1283-1-NB590], the “NanoBRET Fold Response” value was found to be 1.10 at SSTR4 (SSTR4, 0.1μM); 1.07 on SSTR4 (SSTR4, 1μM); 1.02 on SSTR2 (SSTR2, 0.1μM); 1.09 at SSTR2 (SSTR2, 1μM); 0.89 on GABBR2 (GABBR2, 0.1μM); 1.01 on GABBR2 (GABBR2, 1μM). The “NanoBRET Fold Response” value on SMO (SMO, 0.1μM) is given as 1.05; at SMO (SMO, 1μM) it was 1.13.

For `COc1ccc2[nH]c(-c3ccc(CNC(=O)CCOCCOCCOCCOCCNC(=O)CCc4ccc5n4[B-](F)(F)[N+]4=C(c6ccc[nH]6)C=CC4=C5)cc3)c(CCNC(C)=O)c2n1` [AzomelatoninICO9-2-NB590], the “NanoBRET Fold Response” value turned out to be 0.84 at SSTR4 (0.1μM tracer); 0.98 at SSTR4 (1μM tracer); 1.10 at SSTR2 (0.1μM tracer); 1.00 on SSTR2 (1μM tracer); 0.87 at GABBR2 (0.1μM tracer); 1.13 on GABBR2 (1μM tracer). In addition, the “NanoBRET Fold Response” value on SMO (0.1μM tracer) is 0.86; at SMO (1μM tracer), 1.25.

In the case of `CN(CCC=C1c2ccccc2CCc2ccccc21)C(=O)CCOCCOCCOCCOCCNC(=O)CCc1ccc2n1[B-](F)(F)[N+]1=C(c3ccc[nH]3)C=CC1=C2` [Amitriptyline-e-2-NB590], the “NanoBRET Fold Response” value at GABBR2 (tracer at 1μM) was 1.08.

The values above are taken from paper PMC8151276, “An Integrated Approach toward NanoBRET Tracers for Analysis of GPCR Ligand Engagement” (Molecules, 2021).
